Test results taken from publication PMC6315298 (2018).

Test system: Mango-II (RNA, aptamer) GCGUACGAAGGAGAGGAGAGGAAGAGGAGAGUACGC
Assay: fluorescence binding

CN1C=CC(=C/C=C/c2sc3ccccc3[n+]2CC(=O)NCCOCCOCCOCCNC(=O)CCCC[C@@H]2SC[C@@H]3NC(=O)N[C@@H]32)c2ccccc21
Kd: ~ 1.4 nM

CN1C=CC(=Cc2sc3ccccc3[n+]2CC(=O)NCCOCCOCCOCCNC(=O)CCCC[C@@H]2SC[C@@H]3NC(=O)N[C@@H]32)c2ccccc21
Kd: 1.1 nM
